Results on 56 compounds are retold here after US12116343B2, “Inhibitors of APOL1 and methods of using same” (Vertex Pharmaceuticals Incorporated, priority 2020, dated 2024).

This assay deals with T1, G1 APOL1 (Homo sapiens, UniProt O14791, I384M/S342G).
T1 construct: expressed in transfected cells
T1 sequence (O14791 28-398 S342G/I384M): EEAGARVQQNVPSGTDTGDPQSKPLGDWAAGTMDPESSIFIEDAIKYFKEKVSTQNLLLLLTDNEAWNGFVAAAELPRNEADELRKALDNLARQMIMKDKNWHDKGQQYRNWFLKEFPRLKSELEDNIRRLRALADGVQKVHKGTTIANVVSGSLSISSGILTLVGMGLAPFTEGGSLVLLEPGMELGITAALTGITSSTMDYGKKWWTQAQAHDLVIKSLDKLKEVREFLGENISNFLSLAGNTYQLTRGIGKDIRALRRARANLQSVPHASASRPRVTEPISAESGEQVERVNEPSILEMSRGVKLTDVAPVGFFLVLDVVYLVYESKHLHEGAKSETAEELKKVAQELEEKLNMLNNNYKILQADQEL
Kind of assay: Acute APOL1 Thallium Assay with inducible stable clones of HEK 293 cells. It is filed as cell-based. The settings on record: Table 24, Compounds 287 to 465; read-out: Thallium Assay (IC50). In short, it runs like this: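 Readout: Tl+-triggered fluorescence, FLIPR, reflecting potassium flux through APOL1 pores after cells take up an AM-ester thallium indicator. Cells: HEK T-Rex stable clone G1 DC3.25, APOL1 G1 induced by tetracycline, seeded 26000 per well.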
For orientation: IC50 means the concentration that gives 50% inhibition. Consider `Cc1nn(C)cc1CNC(=O)C1CC(Cc2c(-c3ccc(F)cc3)[nH]c3c(F)cc(F)cc23)C1` (centres unmarked) [Compound 335], for which the 50% inhibitory concentration (IC50) is above 1000 nM.

As to `O=C1CC(CNC(=O)C2CC(Cc3c(-c4ccc(F)cc4)[nH]c4c(F)cc(F)cc34)C2)CN1` (centres unmarked) [Compound 336], the half-inhibitory concentration (IC50) is above 1000 nM.

With `O=C(NCc1cnco1)C1CC(Cc2c(-c3ccc(F)cc3)[nH]c3c(F)cc(F)cc23)C1` (centres unmarked) [Compound 337], the IC50 was above 1000 nM.

As to `Cn1ccnc1CNC(=O)C1CC(Cc2c(-c3ccc(F)cc3)[nH]c3c(F)cc(F)cc23)C1` (centres unmarked) [Compound 338], the IC50 was above 1000 nM. The figure for `O=C(Nc1ccc[nH]c1=O)C1CC(Cc2c(-c3ccc(F)cc3)[nH]c3c(F)cc(F)cc23)C1` (centres unmarked) [Compound 339] is above 1000 nM. The figure for `Cc1cc(CNC(=O)C2CC(Cc3c(-c4ccc(F)cc4)[nH]c4c(F)cc(F)cc34)C2)nn1C` (centres unmarked) [Compound 340] is above 1000 nM; for `O=C(NCc1cocn1)C1CC(Cc2c(-c3ccc(F)cc3)[nH]c3c(F)cc(F)cc23)C1` (centres unmarked) [Compound 341] it is above 1000 nM.

As to `O=C(NCc1ncc[nH]1)C1CC(Cc2c(-c3ccc(F)cc3)[nH]c3c(F)cc(F)cc23)C1` (centres unmarked) [Compound 342], the concentration for half-maximal inhibition (IC50) is above 1000 nM. For `COC1(CNC(=O)C2CC(Cc3c(-c4ccc(F)cc4)[nH]c4c(F)cc(F)cc34)C2)CCOC1` (centres unmarked) [Compound 343], the half-maximal inhibitory concentration (IC50) is above 1000 nM. On to `Cn1cncc1CNC(=O)C1CC(Cc2c(-c3ccc(F)cc3)[nH]c3c(F)cc(F)cc23)C1` (centres unmarked) [Compound 344], for which the concentration for half-maximal inhibition (IC50) was above 1000 nM. The figure for `O=C(NCc1ccc(=O)[nH]c1)C1CC(Cc2c(-c3ccc(F)cc3)[nH]c3c(F)cc(F)cc23)C1` (centres unmarked) [Compound 346] is above 1000 nM.

For the compound `CC(C)C[C@@H](CO)NC(=O)C1CC(Cc2c(-c3ccc(F)cc3)[nH]c3c(F)cc(F)cc23)C1` (some centres unmarked) [Compound 347], the IC50 is above 1000 nM. For the compound `O=C(NC(CO)(CO)CO)O[C@H]1C[C@H](c2c(-c3ccc(F)cc3)[nH]c3c(F)cc(F)cc32)C1` [Compound 349, (1r, 3r)-3-(5,7-difluoro-2-(4-fluorophenyl)-1H-indol-3-yl)cyclobutyl (1,3-dihydroxy-2-(hydroxymethyl)propan-2-yl)carbamate], the half-inhibitory concentration (IC50) was below 250 nM.

For `O=C(NCCO)O[C@H]1C[C@H](c2c(-c3ccc(F)cc3)[nH]c3c(F)cc(F)cc32)C1` [Compound 350], the half-maximal inhibitory concentration (IC50) lay in the range of 250 to 1000 nM. On to `O=C(NCC(F)F)O[C@H]1C[C@H](c2c(-c3ccc(F)cc3)[nH]c3c(F)cc(F)cc32)C1` [Compound 351], for which the IC50 was in the range of 250 to 1000 nM. As for `CC(C)(CO)NC(=O)O[C@H]1C[C@H](c2c(-c3ccc(F)cc3)[nH]c3c(F)cc(F)cc32)C1` [Compound 352], the half-maximal inhibitory concentration (IC50) lay within 250 to 1000 nM. Consider `O=C(NCc1cnco1)O[C@H]1C[C@H](c2c(-c3ccc(F)cc3)[nH]c3c(F)cc(F)cc32)C1` [Compound 353], for which the IC50 was in the range of 250 to 1000 nM. Consider `C[C@H](CO)NC(=O)O[C@H]1C[C@H](c2c(-c3ccc(F)cc3)[nH]c3c(F)cc(F)cc32)C1` [Compound 354], for which the half-maximal inhibitory concentration (IC50) lay in the range of 250 to 1000 nM. On to `NC(=O)CNC(=O)O[C@H]1C[C@H](c2c(-c3ccc(F)cc3)[nH]c3c(F)cc(F)cc32)C1` [Compound 355], for which the IC50 lay in the range of 250 to 1000 nM.

As to `C[C@@H](CO)NC(=O)O[C@H]1C[C@H](c2c(-c3ccc(F)cc3)[nH]c3c(F)cc(F)cc32)C1` [Compound 357], the IC50 lay in the range of 250 to 1000 nM. On to `O=C(NC1CC1)O[C@H]1C[C@H](c2c(-c3ccc(F)cc3)[nH]c3c(F)cc(F)cc32)C1` [Compound 358], for which the IC50 is 250 to 1000 nM.

On to `O=C(N[C@@H]1CCNC1=O)O[C@H]1C[C@H](c2c(-c3ccc(F)cc3)[nH]c3c(F)cc(F)cc32)C1` [Compound 359], for which the 50% inhibitory concentration (IC50) fell in the range of 250 to 1000 nM. With `CC1(O)CC(NC(=O)O[C@H]2C[C@H](c3c(-c4ccc(F)cc4)[nH]c4c(F)cc(F)cc43)C2)C1` (some centres unmarked) [Compound 361], the IC50 is above 1000 nM. The result for `O=C(N[C@H](CO)C(F)(F)F)O[C@H]1C[C@H](c2c(-c3ccc(F)cc3)[nH]c3c(F)cc(F)cc32)C1` [Compound 362] reads above 1000 nM. `COC[C@H](C)NC(=O)O[C@H]1C[C@H](c2c(-c3ccc(F)cc3)[nH]c3c(F)cc(F)cc32)C1` [Compound 364]: the 50% inhibitory concentration (IC50) was above 1000 nM. In the case of `C[C@H](O)CNC(=O)O[C@H]1C[C@H](c2c(-c3ccc(F)cc3)[nH]c3c(F)cc(F)cc32)C1` [Compound 365], the IC50 is above 1000 nM. The result for `C[C@H](O)[C@H](CO)NC(=O)O[C@H]1C[C@H](c2c(-c3ccc(F)cc3)[nH]c3c(F)cc(F)cc32)C1` [Compound 366] reads above 1000 nM; that for `O=C(NCC(O)CO)O[C@H]1C[C@H](c2c(-c3ccc(F)cc3)[nH]c3c(F)cc(F)cc32)C1` (some centres unmarked) [Compound 367], above 1000 nM; that for `Cn1cnc(CNC(=O)O[C@H]2C[C@H](c3c(-c4ccc(F)cc4)[nH]c4c(F)cc(F)cc43)C2)c1` [Compound 368], above 1000 nM.

With `C[C@@H](O)CNC(=O)O[C@H]1C[C@H](c2c(-c3ccc(F)cc3)[nH]c3c(F)cc(F)cc32)C1` [Compound 369], the IC50 was above 1000 nM. For the compound `O=C(NCC1CC1)O[C@H]1C[C@H](c2c(-c3ccc(F)cc3)[nH]c3c(F)cc(F)cc32)C1` [Compound 370], the IC50 is above 1000 nM.

For the compound `O=C(N[C@H]1CCNC1=O)O[C@H]1C[C@H](c2c(-c3ccc(F)cc3)[nH]c3c(F)cc(F)cc32)C1` [Compound 371], the IC50 is above 1000 nM.

With `C[C@@H](O)[C@@H](CO)NC(=O)O[C@H]1C[C@H](c2c(-c3ccc(F)cc3)[nH]c3c(F)cc(F)cc32)C1` [Compound 372], the IC50 is above 1000 nM. As to `O=C(NCc1ncc[nH]1)O[C@H]1C[C@H](c2c(-c3ccc(F)cc3)[nH]c3c(F)cc(F)cc32)C1` [Compound 373], the IC50 was above 1000 nM. Consider `Cc1cnc(CNC(=O)O[C@H]2C[C@H](c3c(-c4ccc(F)cc4)[nH]c4c(F)cc(F)cc43)C2)o1` [Compound 374], for which the IC50 was above 1000 nM.

Consider `Cc1ccc(CNC(=O)O[C@H]2C[C@H](c3c(-c4ccc(F)cc4)[nH]c4c(F)cc(F)cc43)C2)o1` [Compound 375], for which the IC50 was above 1000 nM.

On to `COC1CC1NC(=O)O[C@H]1C[C@H](c2c(-c3ccc(F)cc3)[nH]c3c(F)cc(F)cc32)C1` (some centres unmarked) [Compound 376], for which the IC50 is above 1000 nM. The figure for `CC(C)[C@@H](CO)NC(=O)O[C@H]1C[C@H](c2c(-c3ccc(F)cc3)[nH]c3c(F)cc(F)cc32)C1` [Compound 377] is above 1000 nM. `O=C(NCc1ccco1)O[C@H]1C[C@H](c2c(-c3ccc(F)cc3)[nH]c3c(F)cc(F)cc32)C1` [Compound 379]: the concentration for half-maximal inhibition (IC50) was above 1000 nM. `CC(C)C(CO)NC(=O)O[C@H]1C[C@H](c2c(-c3ccc(F)cc3)[nH]c3c(F)cc(F)cc32)C1` (some centres unmarked) [Compound 380]: the IC50 was above 1000 nM.

Take `O=C(N[C@H]1CCOC1)O[C@H]1C[C@H](c2c(-c3ccc(F)cc3)[nH]c3c(F)cc(F)cc32)C1` [Compound 381]: the IC50 was above 1000 nM. The figure for `O=C(NC1CCOC1)O[C@H]1C[C@H](c2c(-c3ccc(F)cc3)[nH]c3c(F)cc(F)cc32)C1` (some centres unmarked) [Compound 382] is above 1000 nM.

As for `O=C(NC1CC(O)C1)O[C@H]1C[C@H](c2c(-c3ccc(F)cc3)[nH]c3c(F)cc(F)cc32)C1` (some centres unmarked) [Compound 383], the half-inhibitory concentration (IC50) was above 1000 nM. For the compound `O=C(NCC1CCOC1)O[C@H]1C[C@H](c2c(-c3ccc(F)cc3)[nH]c3c(F)cc(F)cc32)C1` (some centres unmarked) [Compound 384], the IC50 is above 1000 nM. Consider `Cc1cc(CNC(=O)O[C@H]2C[C@H](c3c(-c4ccc(F)cc4)[nH]c4c(F)cc(F)cc43)C2)on1` [Compound 385], for which the half-inhibitory concentration (IC50) was above 1000 nM. Take `O=C(NCc1cn(CC(F)(F)F)cn1)O[C@H]1C[C@H](c2c(-c3ccc(F)cc3)[nH]c3c(F)cc(F)cc32)C1` [Compound 386]: the IC50 was above 1000 nM.

As to `Cn1cc(CNC(=O)O[C@H]2C[C@H](c3c(-c4ccc(F)cc4)[nH]c4c(F)cc(F)cc43)C2)nn1` [Compound 387], the IC50 is above 1000 nM. Turning to `CCC(O)CNC(=O)O[C@H]1C[C@H](c2c(-c3ccc(F)cc3)[nH]c3c(F)cc(F)cc32)C1` (some centres unmarked) [Compound 388], the IC50 is above 1000 nM. As to `O=C(N[C@H]1COC[C@@H]1O)O[C@H]1C[C@H](c2c(-c3ccc(F)cc3)[nH]c3c(F)cc(F)cc32)C1` [Compound 389], the IC50 is above 1000 nM. On to `CO[C@H]1C[C@@H](NC(=O)O[C@H]2C[C@H](c3c(-c4ccc(F)cc4)[nH]c4c(F)cc(F)cc43)C2)C1` [Compound 390], for which the IC50 was above 1000 nM. For the compound `CNC(=O)NC[C@H]1C[C@H](c2c(-c3ccc(F)cc3)[nH]c3c(F)cc(F)cc32)C1` [Compound 391, 1-(((1r,3r)-3-(5,7-difluoro-2-(4-fluorophenyl)-1H-indol-3-yl)cyclobutyl)methyl)-3-methylurea], the half-maximal inhibitory concentration (IC50) lay within 250 to 1000 nM. `O=C(NCCO)NC[C@H]1C[C@H](c2c(-c3ccc(F)cc3)[nH]c3c(F)cc(F)cc32)C1` [Compound 393]: the half-maximal inhibitory concentration (IC50) was above 1000 nM. Consider `O=C(NC[C@H]1C[C@H](c2c(-c3ccc(F)cc3)[nH]c3c(F)cc(F)cc32)C1)N[C@H]1CC[C@H]1O` [Compound 394], for which the IC50 was above 1000 nM. Consider `CC1CC(NC(=O)NC[C@H]2C[C@H](c3c(-c4ccc(F)cc4)[nH]c4c(F)cc(F)cc43)C2)C(=O)O1` (some centres unmarked) [Compound 395], for which the IC50 is above 1000 nM. Turning to `O=C(NCC1(CO)COC1)NC[C@H]1C[C@H](c2c(-c3ccc(F)cc3)[nH]c3c(F)cc(F)cc32)C1` [Compound 396], the IC50 was above 1000 nM. In the case of `CC(CO)(CO)NC(=O)NC[C@H]1C[C@H](c2c(-c3ccc(F)cc3)[nH]c3c(F)cc(F)cc32)C1` [Compound 397], the IC50 is above 1000 nM.
